Columns and labels:
[1] = system: rabbit serum obtained by immunizing a rabbit with the SARS-CoV strain Frankfurt 1; type: binding; parameters: Binding of a rabbit serum to linear peptides / Binding of a rabbit serum to looped peptides / Rabbit serum linear peptides / Rabbit serum looped peptides / Binding of a rabbit serum to linear peptides of protein N of SARS-CoV Urbani (Rabbit serum linear peptides) / Binding of a rabbit serum to looped/cyclic peptides of protein N of SARS-CoV Urbani (Rabbit serum looped peptides): unit not given here
[2] = system: control sera (pooled serum of ten healthy LUMC hospital workers; commercial negative donor pooled serum from the Dutch bloodbank); type: binding, human; parameters: Binding of Control serum LUMC to linear peptides / Binding of Control serum Blood-bank to linear peptides / Binding of Control serum LUMC to looped peptides / Binding of Control Serum Blood-Bank to Looped peptides / Binding of Control serum LUMC to linear peptides of the protein M of SARS-CoV Urbani / Binding of Control serum Blood-bank to linear peptides of the protein M of SARS-CoV Urbani / Binding of Control serum LUMC to looped peptides of the protein M of SARS-CoV Urbani / Binding of Control Serum Blood-Bank to Looped peptides of the protein M of SARS-CoV Urbani: unit not given here
[3] = system: recombinant human anti-SARS-CoV antibody 03-018; type: binding; parameters: Binding of antibody 03-018 to linear peptides of the N protein of SARS-CoV Urbani / Binding of antibody 03-018 to looped/cyclic peptides of the N protein of SARS-CoV Urbani: unit not given here
[4] = system: antibodies in sera from SARS patients (sera 1a, 1b, 2, 6, 37, 62, London, SARS-yellow, SARS-green); type: binding, human; parameters: Binding of serum 6 to linear peptides of protein X1 of SARS-CoV Urbani / Binding of serum 37 to linear peptides of protein X1 of SARS-CoV Urbani / Binding of serum 6 to looped/cyclic peptide (PEPSCAN-ELISA) / Binding of serum 37 to looped/cyclic peptide (PEPSCAN-ELISA) / Binding of serum 37 to looped/cyclic peptides of protein X1 of SARS-CoV Urbani / Binding of serum 6 to linear peptides of protein X2 / Binding of serum 37 to linear peptides of protein X2 / Binding of serum 37 to looped/cyclic peptides of protein X2 of SARS-CoV Urbani / Binding of serum 6 to linear peptides of protein M of SARS-CoV Urbani / Binding of serum 37 to linear peptides of protein M of SARS-CoV Urbani / Binding of serum 6 to looped/cyclic peptides of protein M of SARS-CoV Urbani / Binding of serum 37 to looped/cyclic peptides of protein M of SARS-CoV Urbani / Binding of serum 6 to linear peptides of protein X3 of SARS-CoV Urbani / Binding of serum 37 to linear peptides of protein X3 of SARS-CoV Urbani / Binding of serum 37 to looped/cyclic peptides of protein X3 of SARS-CoV Urbani / Binding of serum 6 to linear peptides of protein X4 of SARS-CoV Urbani / Binding of serum 37 to linear peptides of protein X4 of SARS-CoV Urbani / Binding of serum 37 to looped/cyclic peptides of protein X4 of SARS-CoV Urbani / Binding of serum 6 to linear peptides of protein X5 of SARS-CoV Urbani / Binding of serum 37 to linear peptides of protein X5 of SARS-CoV Urbani / Binding of serum 37 to looped/cyclic peptides of protein X5 of SARS-CoV Urbani / Binding of serum 6 to linear peptides of protein N of SARS-CoV Urbani / Binding of serum 37 to linear peptides of protein N of SARS-CoV Urbani / Binding of serum 6 to linear peptide (PEPSCAN-ELISA) / Binding of serum 1a to looped/cyclic peptides of protein N of SARS-CoV Urbani / Binding of serum 1b to looped/cyclic peptides of protein N of SARS-CoV Urbani / Binding of serum 2 to looped/cyclic peptides of protein N of SARS-CoV Urbani / Binding of serum 6 to looped/cyclic peptides of protein N of SARS-CoV Urbani / Binding of serum 37 to looped/cyclic peptides of protein N of SARS-CoV Urbani / Binding of serum 62 to looped/cyclic peptides of protein N of SARS-CoV Urbani / Binding of serum London to looped/cyclic peptides of protein N of SARS-CoV Urbani / Binding of serum SARS-green to looped/cyclic peptides of protein N of SARS-CoV Urbani: unit not given here

| Sequence | Binding of a rabbit serum to linear peptides of protein N of SARS-CoV Urbani (Rabbit serum linear peptides) [1] | Binding of a rabbit serum to looped/cyclic peptides of protein N of SARS-CoV Urbani (Rabbit serum looped peptides) [1] | Binding of Control Serum Blood-Bank to Looped peptides [2] | Binding of Control serum Blood-bank to linear peptides [2] | Binding of Control serum LUMC to linear peptides [2] | Binding of Control serum LUMC to looped peptides [2] | Binding of antibody 03-018 to linear peptides of the N protein of SARS-CoV Urbani [3] | Binding of antibody 03-018 to looped/cyclic peptides of the N protein of SARS-CoV Urbani [3] | Binding of serum 1a to looped/cyclic peptides of protein N of SARS-CoV Urbani [4] | Binding of serum 1b to looped/cyclic peptides of protein N of SARS-CoV Urbani [4] | Binding of serum 2 to looped/cyclic peptides of protein N of SARS-CoV Urbani [4] | Binding of serum 6 to looped/cyclic peptides of protein N of SARS-CoV Urbani [4] | Binding of serum 37 to looped/cyclic peptides of protein N of SARS-CoV Urbani [4] | Binding of serum 62 to looped/cyclic peptides of protein N of SARS-CoV Urbani [4] | Binding of serum London to looped/cyclic peptides of protein N of SARS-CoV Urbani [4] | Binding of serum SARS-green to looped/cyclic peptides of protein N of SARS-CoV Urbani [4] | Binding of serum SARS-yellow to looped/cyclic peptides of protein N of SARS-CoV Urbani [4] | Recognition of the peptide by sera of SARS-CoV infected individuals, and form (linear, looped/cyclic) in which it is recognized [4] | Binding of serum 1a to linear peptides of protein N of SARS-CoV Urbani [4] | Binding of serum 1b to linear peptides of protein N of SARS-CoV Urbani [4] | other results |
| --- | --- | --- | --- | --- | --- | --- | --- | --- | --- | --- | --- | --- | --- | --- | --- | --- | --- | --- | --- | --- | --- |
| SRGNSRNSTPGSSRG | 0.2 | 0.2 | 0.4 | 0.9 | 0.8 | 0.4 | 0.1 | 0.2 | 0.6 | 0.4 | 0.2 | 0.2 | 0.4 | 0.3 | 0.3 | 0.1 | 0.2 | – | – | – | Binding of serum 1a to linear peptide (PEPSCAN-ELISA) [4]: 0.7; Binding of serum 1b to linear peptide (PEPSCAN-ELISA) [4]: 0.4; Binding of serum 2 to linear peptide (PEPSCAN-ELISA) [4]: 0.2; Binding of serum 6 to linear peptide (PEPSCAN-ELISA) [4]: 0.2; Binding of serum 37 to linear peptide (PEPSCAN-ELISA) [4]: 0.7; Binding of serum 62 to linear peptide (PEPSCAN-ELISA) [4]: 0.7; Binding of serum London to linear peptide (PEPSCAN-ELISA) [4]: 0.5; Binding of serum SARS-green to linear peptide (PEPSCAN-ELISA) [4]: 0.4; Binding of serum SARS-yellow to linear peptide (PEPSCAN-ELISA) [4]: 0.7 |
| QTVTKKSAAEASKKP | 0.2 | 0.3 | 0.5 | 0.8 | 0.9 | 0.5 | 0.1 | 0.2 | 0.3 | 0.2 | 0.4 | 0.2 | 0.5 | 0.3 | 0.3 | 0.0 | 0.2 | recognized in linear form | – | – | – |
| KKKTDEAQPLPQRQK | 0.2 | 0.1 | – | – | – | – | 0.1 | 0.2 | 0.2 | 0.1 | 0.1 | 0.0 | 0.3 | 0.2 | 0.3 | 0.0 | 0.0 | – | 0.2 | 0.1 | Control Serum Blood-Bank Looped peptides [2]: 0.4; Control serum Blood-bank linear peptides [2]: 0.9; Control serum LUMC linear peptides [2]: 0.8; Control serum LUMC looped peptides [2]: 0.3; Binding of serum 2 to linear peptides of protein N of SARS-CoV Urbani [4]: 0.2; Binding of serum 6 to linear peptides of protein N of SARS-CoV Urbani [4]: 0.7; Binding of serum 37 to linear peptides of protein N of SARS-CoV Urbani [4]: 0.9; Binding of serum 62 to linear peptides of protein N of SARS-CoV Urbani [4]: 0.6; Binding of serum London to linear peptides of protein N of SARS-CoV Urbani [4]: 1.1; Binding of serum SARS-green to linear peptides of protein N of SARS-CoV Urbani [4]: 0.4; Binding of serum SARS-yellow to linear peptides of protein N of SARS-CoV Urbani [4]: 1.0 |
| SAAEASKKPRQKRTA | 0.2 | 0.3 | 0.4 | 0.8 | 0.8 | 0.4 | 0.1 | 0.2 | 0.2 | 0.1 | 0.2 | 0.1 | 0.4 | 0.3 | 0.3 | 0.1 | 0.2 | recognized in linear form | – | – | – |
| PRITFGGPTDSTDNN | 0.3 | 0.4 | 0.6 | 0.6 | 0.5 | 0.6 | – | – | 0.3 | 0.2 | 0.3 | 0.2 | 0.7 | 0.5 | 0.3 | 0.8 | 0.4 | – | 0.2 | 0.1 | Recognition of the peptide by antibody 03-018 [3]: recognized; Binding of serum 2 to linear peptides of protein N of SARS-CoV Urbani [4]: 0.2; Binding of serum 6 to linear peptides of protein N of SARS-CoV Urbani [4]: 0.1; Binding of serum 37 to linear peptides of protein N of SARS-CoV Urbani [4]: 0.7; Binding of serum 62 to linear peptides of protein N of SARS-CoV Urbani [4]: 0.6; Binding of serum London to linear peptides of protein N of SARS-CoV Urbani [4]: 0.5; Binding of serum SARS-green to linear peptides of protein N of SARS-CoV Urbani [4]: 0.6; Binding of serum SARS-yellow to linear peptides of protein N of SARS-CoV Urbani [4]: 0.3 |
